According to patent US20040181820A1, “Nucleic acids for transforming fish cells and methods for their use” (priority 2001, published 2004):
Like-named read-outs stand apart in the source and are kept apart here.

Tests used:
[1] = test system: epithelioma papulosum cyprini cells (EPC)
Experimental: In vitro experiments in epithelioma papulosum cyprini cells (EPC) were performed to verify the mechanisin of action of the “suicide vectors”.
Cell transfection assays were made using Lipofectamine Plus following the instructions of the manufacturer (Gibco, BRL, Gaithersburg, Md.). After 48 hours, the cells were treated with 100 μM ZnCl2, an inducer of the MT promoter.
(100 μM). Cells transfected with the different constructs were left uninduced (a,d) or were treated with […] of ZnCl2 at 48 h. post-transfection (b,c,e,f).

rainbow trout fry = conditions: for mortality of rainbow trout fry: 48 hours, fry 0.8 g
Experimental: Three different concentrations of ZnCl2 (1 μM, 10 μM, 100 μM) were assayed and analyzed for their toxic effects in rainbow trout fry (0.8 g).
Different concentrations of ZnCl2(10 mM, 5 mM, 2.5 mM, 1 mM, 100 μM, […] and 1 μM) were assayed and observed for their toxic effect in rainbow trout. […] After 30 days post-challenge, the correct dose (10 μM ZnCl2) is added to 90 fish per treatment. After 48 hours, PCR analysis with IHNV G and M specific primers is performed to verify that the DNA vaccines have been totally eliminated from muscle tissue of the vaccinated and Zinc exposed fish.

EPC cells = conditions: 100, 150, or 200 μM
Experimental: Persistence of a DNA suicide vector (constructed according to Example 21) in transfected cells was assessed by a reverse transcriptase reaction coupled to PCR (RT-PCR). […] Approximately 24 hours after transfection, the cells were treated with non-toxic concentrations of ZnCl2 (100, 150, or 200 μM). Control cells were left untreated.
At 48 hours after the ZnCl2 addition, total RNA was isolated and an RT-PCR assay using IHNV-G specific primers (5′-[sequence]-3′ provided by SEQ. ID. NO: 2 and 5′-[sequence] [sequence]-3′ provided by SEQ. ID. NO: 3) was performed. PCR conditions were: 94° C. 30 sec, 55° C. 1 min and 72° C. 2 min.

fish cells = experiment: Zinc induction of metallothionein promoter in fish cells (Example 14); type: cell-based; conditions: 100 μM zinc dose
[2] = test system: rainbow trout MT promoter; experiment: pMT-CAT reporter in medaka hatchlings with and without zinc (Example 14); type: in vivo; conditions: medaka injected with pMT-CAT plasmid, stimulated with zinc vs unstimulated
Experimental: The activity of the rainbow trout MT promoter was examined by microinjecting plasmids containing pMT operably linked to the CAT reporter into fertilized eggs of medaka, as described in Inoue, et al., Supra. CAT activities were determined in hatchlings with and without stimulation with zinc. Only small trace levels of CAT activity were detected in unstimulated fish, but CAT activity increased in fish stimulated with zinc.

Row | SMILES | effect of ZnCl2 on untransfected EPC control cells [1] | mortality of rainbow trout fry (rainbow trout fry; 1 μM and 10 μM in water) | mortality of rainbow trout fry (rainbow trout fry; 100 μM in water) | concentrations toxic for rainbow trout fry (rainbow trout fry; fry 1 g) | toxicity of ZnCl2 to transfected EPC cells (EPC cells) | toxicity in fish cells (fish cells) | nucleic acid expression mediated by the metallothionein promoter (fish cells; fish cells) | CAT activity in hatchlings [2]
1 | [Cl-].[Cl-].[Zn+2] [ZnCl2] | not obviously affected | no mortalities | all fish immersed in 100 μM ZnCl2 had died | higher than 10 μM | non-toxic |  |  | 
2 | [Zn] [zinc] |  |  |  |  |  | without toxicity | induces | increased
